Here are results for 9 molecules from ChEMBL document CHEMBL1201862, “PubChem BioAssay data set” (2004).

SMILES strings stand for the structures.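 Step 1: Grow cells in 96-well plates. Step 2: Expose to compound for 48 hours at 5 concentrations. Step 3: Interpolate endpoints linearly; if unreached, use highest concentration. Abbreviation: GI50, concentration required for 50% inhibition of growth.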 The source made the active and inactive calls. No stated cut-off is given here; in the data, active = GI50 up to about 1.1 µM and inactive = higher.

What all share (assay): inhibition of tumour cell growth, NCI panel, 48 h
Assay [1] relates to 786-0.
The subject of assay [2] is BT-549.
Assay [3] concerns DU-145.
Assay [4] has as its system HCT-15.
Assay [5] deals with HOP-62.
The subject of assay [6] is HT-29.
In assay [7] the test system is Hs-578T.
The subject of assay [8] is KM12.
Assay [9] deals with MDA-N.
Assay [10] relates to NCI/ADR-RES.
Assay [11] relates to OVCAR-5.
The test system of assay [12] is OVCAR-8.
Assay [13] concerns RXF 393.
Assay [14] deals with SF-268.
In assay [15] the test system is SF-295.
In assay [16] the test system is SF-539.
Assay [17] has as its system SK-OV-3.
In assay [18] the test system is UO-31.
Assay [19] has as its system A498.

Turning to `COC(=O)C1(NC(=O)C(CC(=O)OCc2ccccc2)NC(=O)OCc2ccccc2)CCCCCC1` (stereo unspecified), the GI50 is 38.5 µM (inactive) in assay [1]; 17.4 µM (inactive) in assay [2]; 66.5 µM (inactive) in assay [3]; 38.1 µM in assay [4]; 10.1 µM (inactive) in [5]; 22 µM (inactive) in [6]. Also, the GI50 in [7] is 15.6 µM (inactive); in assay [8] it was 50.1 µM (inactive); in assay [9], 24.7 µM (inactive); in assay [10] it was 21 µM (inactive); in assay [11], 39.2 µM (inactive); in assay [12], 27.2 µM (inactive). Further, the GI50 was 55 µM (inactive) in assay [13]; 42 µM (inactive) in assay [14]; 34.4 µM (inactive) in assay [15]; 23.1 µM (inactive) in [16]; 35.4 µM (inactive) in [17]; 35.1 µM (inactive) in assay [18].
As to `CCOC(=O)CC(=O)C(=O)NN=C1NCCCN1`, the GI50 is > 100 µM (inactive) in [1]; > 100 µM (inactive) in assay [2]; > 100 µM (inactive) in assay [3]; more than 100 µM in assay [4]; > 100 µM (inactive) in assay [5]; > 100 µM (inactive) in [6]. For the same molecule, the GI50 in [7], in assay [8], in assay [9], in assay [11], in [12] and in assay [13] was > 100 µM (inactive) in each case. Besides, the GI50 in assay [14], in assay [15], in assay [16], in [17] and in assay [18] was > 100 µM (inactive) in each case.
With `COc1ccc(/C=C2\N=C(N3CCOCC3)NC2=O)cc1`, the GI50 in [1] is > 100 µM (inactive); in [2], > 100 µM (inactive); in assay [3], > 100 µM (inactive); in [4] it was more than 100 µM; in [5] it was > 100 µM (inactive); in assay [6], > 100 µM (inactive). Besides, the GI50 in assay [7], in [8], in [9], in assay [10], in assay [11] and in assay [12] was > 100 µM (inactive) each time. Besides, the GI50 in assay [13], in [14], in assay [15], in assay [16], in assay [17] and in assay [18] was > 100 µM (inactive) throughout.
As to `COC(=O)C(=O)C(C(=O)OC)C(=O)C(=O)Nc1ccccc1C(N)=O` (stereo unspecified), the GI50 in [1] is > 100 µM (inactive); in [19], > 100 µM (inactive); in [2] it was > 100 µM (inactive); in assay [4] it was more than 100 µM; in assay [5] it was > 100 µM (inactive); in [6] it was > 100 µM (inactive). Further, the GI50 in assay [7], in assay [8], in [9], in [10], in [11] and in [12] was > 100 µM (inactive) in each case. The GI50 in assay [13], in assay [14], in [15], in assay [16], in assay [17] and in [18] was > 100 µM (inactive) in each case.
Turning to `CSC1(CC(=O)N2CCCCC2)C(=O)Nc2ccccc21` (stereo unspecified), the GI50 in assay [1] is > 100 µM (inactive); in assay [19], > 100 µM (inactive); in assay [2], > 100 µM (inactive); in assay [3], > 100 µM (inactive); in assay [4] it was more than 100 µM; in assay [5], > 100 µM (inactive). For the same molecule, the GI50 in assay [6], in assay [7], in assay [8], in [10], in assay [11] and in assay [14] was > 100 µM (inactive) throughout. Also, the GI50 in [15], in assay [16], in assay [17] and in assay [18] was > 100 µM (inactive) in each case.
On to `O=c1[nH]c2ccc(CC(=S)N3CCOCC3)cc2o1`, for which the GI50 in assay [1] was > 100 µM (inactive); in assay [19], > 100 µM (inactive); in assay [2] it was > 100 µM (inactive); in assay [4], more than 100 µM; in assay [5], > 100 µM (inactive); in assay [6], > 100 µM (inactive). Also, the GI50 in [7], in [8], in assay [10], in assay [11], in assay [12] and in [13] was > 100 µM (inactive) each time. Also, the GI50 in [14], in [15], in assay [16] and in [17] was > 100 µM (inactive) each time.
As for `O=C(Nc1ccccn1)c1cc2c(cc1Cl)Sc1nccn1S2(=O)=O`, the GI50 in assay [1] was 35.1 µM (inactive); in [19], 45 µM (inactive); in assay [2] it was 71.3 µM (inactive); in assay [4], 30.7 µM; in [5], 39.6 µM (inactive); in assay [6], 31.1 µM (inactive). For the same molecule, the GI50 in assay [7] is > 100 µM (inactive); in [8] it was 33.6 µM (inactive); in assay [9] it was 36.3 µM (inactive); in assay [10], 31 µM (inactive); in assay [11], > 100 µM (inactive); in assay [12], 37.8 µM (inactive). Moreover, the GI50 was 25.5 µM (inactive) in [13]; 37.8 µM (inactive) in [14]; 36.6 µM (inactive) in assay [15]; 38.1 µM (inactive) in [17]; 27 µM (inactive) in assay [18].
As to `COC1=C2C[C@](OC)(C#CC=CC#CC2O)CC1(C)C` (stereo partly specified), the GI50 was > 100 µM (inactive) in [1]; > 100 µM (inactive) in [2]; > 100 µM (inactive) in [3]; more than 100 µM in assay [4]; > 100 µM (inactive) in assay [5]; > 100 µM (inactive) in assay [6]. Also, the GI50 in assay [7], in [8], in assay [9], in [10], in assay [11] and in assay [12] was > 100 µM (inactive) in each case. Besides, the GI50 is > 100 µM (inactive) in [13]; > 100 µM (inactive) in [14]; > 100 µM (inactive) in assay [15]; > 100 µM (inactive) in [16]; 28.6 µM (inactive) in [18].
With `O=C(Cc1ccccc1)NNc1nc(NNC(=O)c2ccncc2)nc(Nc2ccc(Cl)cc2)n1`, the GI50 in assay [1] was > 10 µM (inactive); in assay [2], > 10 µM (inactive); in assay [3], > 10 µM (inactive); in [4], more than 10 µM; in assay [5], > 10 µM (inactive); in assay [7], > 10 µM (inactive). Further, the GI50 in assay [8] is > 10 µM (inactive); in [9] it was > 10 µM (inactive); in [10] it was 5.85 µM (inactive); in [12], > 10 µM (inactive); in assay [14], > 10 µM (inactive); in assay [16] it was > 10 µM (inactive). The GI50 in assay [17] and in assay [18] was > 10 µM (inactive) in each case.
